Assay results: patent US9210927B2, “Pesticidal compositions and processes related thereto” (Dow AgroSciences LLC, priority 2013, dated 2015)

Assays:
Assay type in all cases: in vivo
GPA (Myzus persicae) = experiment: Bioassays on Green Peach Aphid (GPA), foliar spray on cabbage seedlings; details: 72 h, corrected % control (Abbott), 200 ppm spray on cabbage seedlings, three days, read-out: GPA Rating
Method: Bioassays on Green Peach Aphid (“GPA”) (Myzus persicae) Certain molecules disclosed in this document were tested against GPA using procedures described in the following example. In the reporting of the results, the “GPA Rating Table” was used (See Table Section). Cabbage seedlings grown in 3-inch pots, with 2-3 small (3-5 cm) true leaves, were used as test substrate. The seedlings were infested with 20-50 GPA (wingless adult and nymph stages) one day prior to chemical application. Four pots with individual seedlings were used for each treatment. Test compounds (2 mg) were dissolved in 2 mL of acetone/MeOH (1:1) solvent, forming stock solutions of 1000 ppm test compound. The stock solutions were diluted 5× with 0.025% Tween 20 in H2O to obtain the solution at 200 ppm test compound. A hand-held aspirator-type sprayer was used for spraying a solution to both sides of […] leaves until runoff. Reference plants (solvent check) were sprayed with the diluent only containing 20% by volume of acetone/MeOH (1:1) solvent. Treated plants were held in a holding room for three days at approximately 25° C. and ambient relative humidity (RH) prior to grading. Evaluation was conducted by counting the number of live aphids per plant under a microscope. Percent Control was measured by using Abbott's correction formula (W. S. Abbott, “A Method of Computing the Effectiveness of an Insecticide” J. Econ. Entomol. 18 (1925), pp. 265-267) as follows. Corrected % Control=100*(X−Y)/X • where • X=No. of live aphids on solvent check plants and • Y=No. of live aphids on treated plants The results are indicated in the table entitled “Table 3: Assay Results” (See Table Section).

CEW (Helicoverpa zea) = experiment: Bioassays on Corn Earworm (CEW), 128-well diet tray assay; details: Helicoverpa zea, 168 h; percent mortality, second instar larvae, 50 μg/cm^2 on artificial diet, five to seven days, 25° C.; read-out: CEW Rating
Method in brief: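 Percent larval mortality, averaged across eight wells, read after five to seven days at 25 °C under 14:10 light-dark. Each well held one to five second-instar larvae on diet surface-dosed at 50 μg/cm^2 (compound applied in acetone-water 90:10, then dried).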

BAW (Spodoptera exigua) = experiment: Bioassays on Beet Armyworm (BAW), 128-well diet tray assay; details: Spodoptera exigua, 168 h, read-out: BAW Rating
Method in brief: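 Diet surface dosed at 50 μg/cm^2 (acetone-water 90:10 vehicle), dried, then infested with second-instar larvae, one to five per well. After five to seven days at 25° C. under 14:10 light-dark, mortality per well was scored and averaged over eight wells.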

Compound | pest or weed control at 200 ppm (GPA (Myzus persicae)) [%] | pest or weed control at 50 µg/cm2 (CEW (Helicoverpa zea)) [%] | pest or weed control at 50 µg/cm2 (BAW (Spodoptera exigua)) [%]
Cc1cc(/C=C/C(c2cc(Cl)c(F)c(Cl)c2)C(F)(F)F)ccc1C(=O)NC1CCOCC1 (stereo not drawn) [AC52] | 0 to 80 | 50 to 100 | 50 to 100
Cc1cc(/C=C/C(c2cc(Cl)c(F)c(Cl)c2)C(F)(F)F)ccc1C(=O)NCc1ccc(Cl)cn1 (stereo not drawn) [AC53] | 0 to 80 | 50 to 100 | 50 to 100
Cc1cc(/C=C/C(c2cc(Cl)c(F)c(Cl)c2)C(F)(F)F)ccc1C(=O)NCc1ccnc(Cl)c1 (stereo not drawn) [AC54] | 0 to 80 | 50 to 100 | 50 to 100
CC(C)(C)OC(=O)CNC(=O)c1ccc(/C=C/C(c2cc(Cl)c(Cl)c(Cl)c2)C(F)(F)F)cc1Br (stereo not drawn) [AC58] | 0 to 80 | 50 to 100 | 50 to 100
Cc1cc(/C=C/C(c2cc(Cl)cc(Cl)c2)C(F)(F)F)ccc1C(=O)Nc1ccc(Cl)nc1 (stereo not drawn) [AC59] | 0 to 80 | 50 to 100 | 50 to 100
O=C(NC1CSC1)c1ccc(/C=C/C(c2cc(Cl)cc(Cl)c2)C(F)(F)F)cc1F (stereo not drawn) [AC61] | 0 to 80 | 50 to 100 | 50 to 100
O=C(NCc1ccc(Cl)nc1)c1ccc(/C=C/C(c2cc(Cl)c(F)c(Cl)c2)C(F)(F)F)cc1Br (stereo not drawn) [AC63] | 0 to 80 | 50 to 100 | 50 to 100
O=C(CNC(=O)c1ccc(/C=C/C(c2cc(Cl)c(Cl)c(Cl)c2)C(F)(F)F)cc1Cl)NCC(F)(F)F (stereo not drawn) [AC64, (E)-2-Chloro-N-(2-oxo-2-((2,2,2-trifluoroethyl)amino)ethyl)-4-(4,4,4-trifluoro-3-(3,4,5-trichlorophenyl)but-1-en-1-yl)benzamide] | 0 to 80 | 50 to 100 | 50 to 100
O=C(NCc1ccc(Cl)nc1)c1ccc(/C=C/C(c2cc(Cl)c(F)c(Cl)c2)C(F)(F)F)cc1F (stereo not drawn) [AC65] | 0 to 80 | 50 to 100 | 50 to 100
O=C(CNC(=O)c1ccc(/C=C/C(c2cc(Cl)c(Cl)c(Cl)c2)C(F)(F)F)cc1Br)NCC(F)(F)F (stereo not drawn) [AC66] | 0 to 80 | 50 to 100 | 50 to 100
O=C(NC1CSC1)c1ccc(/C=C/C(c2cc(Cl)c(F)c(Cl)c2)C(F)(F)F)cc1F (stereo not drawn) [AC67] | 0 to 80 | 50 to 100 | 50 to 100
Cc1cc(/C=C/C(c2cc(Cl)c(F)c(Cl)c2)C(F)(F)F)ccc1C(=O)NCC(=O)NCC(F)(F)F (stereo not drawn) [AC69] | 80 to 100 | 50 to 100 | 50 to 100
COc1cc(/C=C/C(c2cc(Cl)c(F)c(Cl)c2)C(F)(F)F)ccc1C(=O)NC1CSC1 (stereo not drawn) [AC71] | 0 to 80 | 50 to 100 | 50 to 100
CCc1cc(/C=C/C(c2cc(Cl)c(F)c(Cl)c2)C(F)(F)F)ccc1C(=O)NCc1ccc(Cl)nc1 (stereo not drawn) [AC72] | 0 to 80 | 50 to 100 | 50 to 100
